Laboratory results published in patent US20140050720A1, “ULTRALONG COMPLEMENTARITY DETERMINING REGIONS AND USES THEREOF” (THE SCRIPPS RESEARCH INSTITUTE, priority 2012, published 2014).

Experiments:
Mouse NFS-60 cells = test: Proliferation assay on mouse NFS-60 cells (AlamarBlue); type: cell-based; conditions: 72 hours
Description: Mouse NFS-60 cells were obtained from American Type Culture Collection (ATCC), VA, and cultured in RPMI-1640 medium supplemented with 10% fetal bovine serum (FBS), 0.05 mM 2-mercapoethanol and 62 ng/ml human macrophage colony stimulating factor (M-CSF). For proliferation assay, mouse NFS-60 cells were washed three times with RPMI-1640 medium and resuspended in RPMI-1640 medium with 10% FBS and 0.05 mM 2-mercapoethanol at a density of 1.5×10^5 cells/ml. In 96-well plates, 100 μl of cell suspension was added into each well, followed by the addition of varied concentrations of bGCSF, BLV1H12 antibody, and the immunoglobulin constructs described herein, Equal volume of PBS buffer was added into the control wells. The plates were incubated at 37° C. in a 5% CO2 incubator for 72 hours. Cells were then treated with AlamarBlue (Invitrogen) ( 1/10 volume of cell suspension) for 4 hours at 37° C. Fluorescence at 595 nm for each well was read to indicate the cell viability.

Human mPB CD34+ cells = test: Proliferative activity on human granulocyte progenitors (flow cytometry); type: cell-based; conditions: 7 days
Description: Human mPB CD34^+ cells were purchased from AllCells. Cells were resuspended in HSC expansion medium (StemSpan SFEM, StemCell Technologies) supplemented with 1× antibiotics and the following recombinant human cytokines thrombopoietin, IL6, Flt3 ligand, and stem cell factor (100 ng/mL, R & D Systems), then plated in 96-well plates (1000 cells per well), with varied concentrations of BLV1H12-bGCSF fusion antibodies. Cells were cultured for 7 days at 37° C. in a 5% CO2 incubator, then analyzed by flow cytometry to measure cell number and expression of CD45ra and CD41. Cells were stained in staining medium (HBSS supplemented with 2% FBS and 2 mM EDTA) at 4° C. for 1 h with PECy7 anti-CD45ra and eFluor 450 anti-CD41 (eBiosciences), then washed with staining medium and analyzed. Multicolor analysis for cell phenotyping was performed on a LSR II flow cytometer (Becton Dickinson). FIGS. 10A-10E and Tables 9-10 show the human granulocyte progenitor cell proliferative activities of the Ab-GCSF fusion antibodies.

[1] = Pharmacokinetics of BLV1H12-bGCSF fusion antibodies in mice; type: in vivo; conditions: BALB/c mice, 70 μg injected
Description: For PK study in mice, 70 μg of the immunoglobulin constructs described herein were injected into 3 BALB/c mice per group. Blood samples were drawn from time 0 to 14 days with extended intervals and analyzed by ELISA using anti-human IgG Fc antibody with horseradish peroxidase (HRP) labeled (KPL) and anti-6×His antibody with HRP labeled (Clontech). Data were normalized by taking maximal concentration at the first time point (30 min).

mice neutrophils = test: Neutrophils counts in mice; type: in vivo; conditions: mice blood, 10th day post-injection, neutrophils among white blood cells
Description: On the 10th day after injection of BLV1H12-bGCSF fusion antibodies into mice for PK study, blood samples were drawn from the mice and stained using the Diff Quick Staining Kit (Thermo Fisher Scientific, IL). Neutrophils and white blood cells were counted under microscope and the percentages of neutrophils were analyzed. FIGS. 12A-12B and Table 12 show proliferative activities of BLV1H12-bGCSF fusion antibodies on mice neutrophils that are blood stained and counted at the 10th day post-injection.

Substance: Ab-bGCSF L0: bovine G-CSF replacing the knob domain of BLV1H12 CDR3H, no linker (n=0); DNA SEQ ID NO: 4
- F.I. (AlamarBlue fluorescence at 595 nm, cell viability) (Mouse NFS-60 cells; 0.09876 ng/mL): 1328
- F.I. (AlamarBlue fluorescence at 595 nm, cell viability) (Mouse NFS-60 cells; 0.29627 ng/mL): 1436
- F.I. (AlamarBlue fluorescence at 595 nm, cell viability) (Mouse NFS-60 cells; 0.88881 ng/mL): 1734.765
- F.I. (AlamarBlue fluorescence at 595 nm, cell viability) (Mouse NFS-60 cells; 2.66642 ng/mL): 2189
- F.I. (AlamarBlue fluorescence at 595 nm, cell viability) (Mouse NFS-60 cells; 7.99927 ng/mL): 2680
- F.I. (AlamarBlue fluorescence at 595 nm, cell viability) (Mouse NFS-60 cells; 23.9978 ng/mL): 2899
- F.I. (AlamarBlue fluorescence at 595 nm, cell viability) (Mouse NFS-60 cells; 71.9934 ng/mL): 2921
- F.I. (AlamarBlue fluorescence at 595 nm, cell viability) (Mouse NFS-60 cells; 215.9802 ng/mL): 3416
- Number of CD45RA− CD41− (Human mPB CD34+ cells; 0.14225 ng/mL): 2601
- Number of CD45RA− CD41− (Human mPB CD34+ cells; 0.42676 ng/mL): 2253
- Number of CD45RA− CD41− (Human mPB CD34+ cells; 3.84088 ng/mL): 4399
- Number of CD45RA− CD41− (Human mPB CD34+ cells; 11.52263 ng/mL): 7262
- Number of CD45RA− CD41− (Human mPB CD34+ cells; 34.5679 ng/mL): 9902
- Number of CD45RA− CD41− (Human mPB CD34+ cells; 103.7037 ng/mL): 11500
- Number of CD45RA− CD41− (Human mPB CD34+ cells; 311.11111 ng/mL): 11500
- Number of CD45RA− CD41− (Human mPB CD34+ cells; 933.33333 ng/mL): 11900
- Number of CD45RA− CD41− (Human mPB CD34+ cells; 2800 ng/mL): 12100
- Percentage (normalized to maximal concentration at the first time point, 30 min) ([1]; day 0.021): 100.00%
- Percentage (normalized to maximal concentration at the first time point, 30 min) ([1]; day 0.042): 91.12%
- Percentage (normalized to maximal concentration at the first time point, 30 min) ([1]; day 0.083): 91.24%
- Percentage (normalized to maximal concentration at the first time point, 30 min) ([1]; day 0.125): 91.56%
- Percentage (normalized to maximal concentration at the first time point, 30 min) ([1]; day 0.250): 61.22%
- Percentage (normalized to maximal concentration at the first time point, 30 min) ([1]; day 1.000): 44.22%
- Percentage (normalized to maximal concentration at the first time point, 30 min) ([1]; day 2.000): 36.36%
- Percentage (normalized to maximal concentration at the first time point, 30 min) ([1]; day 3.000): 27.38%
- Percentage (normalized to maximal concentration at the first time point, 30 min) ([1]; day 8.000): 11.53%
- Percentage (normalized to maximal concentration at the first time point, 30 min) ([1]; day 10.000): 12.44%
- Percentage (normalized to maximal concentration at the first time point, 30 min) ([1]; day 14.000): 14.35%
- Percentage of Neutrophil (mice neutrophils): 25.05

Substance: Ab-bGCSF L1: bovine G-CSF replacing the knob domain of BLV1H12 CDR3H with GGGGS linkers on both ends; DNA SEQ ID NO: 5
- F.I. (AlamarBlue fluorescence at 595 nm, cell viability) (Mouse NFS-60 cells; 0.09808 ng/mL): 1412.387
- F.I. (AlamarBlue fluorescence at 595 nm, cell viability) (Mouse NFS-60 cells; 0.29424 ng/mL): 1654.776
- F.I. (AlamarBlue fluorescence at 595 nm, cell viability) (Mouse NFS-60 cells; 0.88272 ng/mL): 2082.718
- F.I. (AlamarBlue fluorescence at 595 nm, cell viability) (Mouse NFS-60 cells; 2.64816 ng/mL): 2550.674
- F.I. (AlamarBlue fluorescence at 595 nm, cell viability) (Mouse NFS-60 cells; 7.94449 ng/mL): 2997.807
- F.I. (AlamarBlue fluorescence at 595 nm, cell viability) (Mouse NFS-60 cells; 23.83346 ng/mL): 3277.812
- F.I. (AlamarBlue fluorescence at 595 nm, cell viability) (Mouse NFS-60 cells; 71.50039 ng/mL): 3308.383
- F.I. (AlamarBlue fluorescence at 595 nm, cell viability) (Mouse NFS-60 cells; 214.50117 ng/mL): 3868.075
- Number of CD45RA− CD41− (Human mPB CD34+ cells; 0.30483 ng/mL): 4070
- Number of CD45RA− CD41− (Human mPB CD34+ cells; 0.91449 ng/mL): 3601
- Number of CD45RA− CD41− (Human mPB CD34+ cells; 2.74348 ng/mL): 4303
- Number of CD45RA− CD41− (Human mPB CD34+ cells; 8.23045 ng/mL): 6404
- Number of CD45RA− CD41− (Human mPB CD34+ cells; 24.69136 ng/mL): 9122
- Number of CD45RA− CD41− (Human mPB CD34+ cells; 74.07407 ng/mL): 11200
- Number of CD45RA− CD41− (Human mPB CD34+ cells; 222.22222 ng/mL): 11000
- Number of CD45RA− CD41− (Human mPB CD34+ cells; 666.66667 ng/mL): 11400
- Number of CD45RA− CD41− (Human mPB CD34+ cells; 2000 ng/mL): 11400
- Number of CD45RA− CD41− (Human mPB CD34+ cells; 6000 ng/mL): 13200
- Percentage (normalized to maximal concentration at the first time point, 30 min) ([1]; day 0.021): 100.00%
- Percentage (normalized to maximal concentration at the first time point, 30 min) ([1]; day 0.042): 102.12%
- Percentage (normalized to maximal concentration at the first time point, 30 min) ([1]; day 0.083): 104.03%
- Percentage (normalized to maximal concentration at the first time point, 30 min) ([1]; day 0.125): 101.71%
- Percentage (normalized to maximal concentration at the first time point, 30 min) ([1]; day 0.250): 93.90%
- Percentage (normalized to maximal concentration at the first time point, 30 min) ([1]; day 1.000): 59.26%
- Percentage (normalized to maximal concentration at the first time point, 30 min) ([1]; day 2.000): 56.66%
- Percentage (normalized to maximal concentration at the first time point, 30 min) ([1]; day 3.000): 39.09%
- Percentage (normalized to maximal concentration at the first time point, 30 min) ([1]; day 8.000): 22.21%
- Percentage (normalized to maximal concentration at the first time point, 30 min) ([1]; day 10.000): 21.15%
- Percentage (normalized to maximal concentration at the first time point, 30 min) ([1]; day 14.000): 21.41%
- Percentage of Neutrophil (mice neutrophils): 25.32
